Data published in patent US20060211747A1, “Methods of screening for compounds which inhibit the activity of Cdc34 in a zinc-mediated manner and compounds obtained by this method” (priority 2004, published 2006).
Where two headings read alike, the source gives them in different places. Values belong to the compound of their own block, whether it stands above or below them.

Assays:
Format in all cases: biochemical
[1] = target: T1, Cdc34-FLAG (Homo sapiens, UniProt P49427); assay: Cdc34 thioester assay in the presence of the chelating agents phenantroline or TSQ (zinc depletion / re-addition); conditions: for IC50: read-out: Compound I IC50
T1 construct: GST with Factor Xa cleavage site (N, cleaved yes); made in house; host or cells: baculovirus, High Five insect cells
T1 sequence (P49427 1-236): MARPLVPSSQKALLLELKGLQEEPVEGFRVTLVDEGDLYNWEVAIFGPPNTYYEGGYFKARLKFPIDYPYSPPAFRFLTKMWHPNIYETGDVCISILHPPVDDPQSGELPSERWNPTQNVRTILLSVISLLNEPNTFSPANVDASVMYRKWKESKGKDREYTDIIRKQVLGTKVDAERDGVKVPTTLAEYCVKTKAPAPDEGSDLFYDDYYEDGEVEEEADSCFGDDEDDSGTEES
Description: (§1) Cdc34 thioester assay: Here, we describe an assay, based on time resolved fluorescence, to monitor the formation of the thioester intermediate between ubiquitin and the ubiquitin-conjugating enzyme Cdc34. The assay is aimed at screening for inhibitors of Cdc34 thioester formation and requires Eu-labelled ubiquitin (Eu—Ub), GST-E1 and Cdc34-FLAG. • Mix: In non-absorbing plates • 10 μl Test compound 5×conc. in 5% DMSO • 30 μl Cdc34-FLAG (20.8 nM) in 1×TEB (no ATP) • Incubate 10 min at RT • Add: 10 μl Eu—Ub (31.2 nM), GST-E1 (125 nM) in 1×TEB+ATP (Pre-incubated 10 min at RT). • Incubate 30 min at RT • Final Concentrations: Test compound 50/12.5/3.13/0.78/0.2/0.05 μM • Cdc34-FLAG 12.5 nM • Eu—Ub 6.25 nM • GST-E1 25 nM • Transfer: 45 μl To streptavidin coated plate containing 50 μl / well Superblock−TBS+1 mM NEM+100 nM biotinylated anti-FLAG antibody • Incubate 2 hours at RT • Wash 6×200 μl/well with 1× Wallac Wash Solution • Add 200 μl/well Wallac Enhancer Solution • Mix 5 min • Read • Positive Control: no test compound, 10 μl 5% DMSO • Negative Control: no Cdc34-FLAG, 30 μl 1×TEB (no ATP)
Cdc34 thioester assay in the presence of the chelating agents phenantroline or TSQ In order to deplete Cdc34 from zinc prior to measuring the inhibitory activity of the test compounds, the Cdc34 thioester assay described above was modified as follows. • Mix: In non-absorbing plates on ice • 10 μl Cdc34-FLAG (62.5 nM) in 1×TEB (no ATP) • 10 μl 5× Phenanthroline/5×TSQ/buffer • 10 μl 5×ZnCl2/buffer • Incubate 10 min on ice • Add: 10 μl Test compound 5×conc. in 5% DMSO • 10 μl Eu—Ub (31.2 nM), GST-E1 (125 nM) in 1×TEB+ATP (Pre-incubated 10 min at RT). • Incubate 30 min at RT • Phenanthroline (Sigma # P-9375) • TSQ (Molecular Probes # M-688)
(§2) The IC50 is defined as 50% inhibition of E2-ubiquitin thioester formation, estimated as the difference in fluorescence obtained in the presence or absence of E2 (Cdc34, UbcH5 or UbcH10).

[2] = target: T2, UbcH10-Strep (SwissProt O00762) (Homo sapiens, UniProt O00762); assay: UbcH10 thioester assay; conditions: thioester formation; n=2
T2 construct: GST with Factor Xa cleavage site (N, cleaved yes); made in house; host or cells: baculovirus, High Five insect cells
T2 sequence (O00762 1-179): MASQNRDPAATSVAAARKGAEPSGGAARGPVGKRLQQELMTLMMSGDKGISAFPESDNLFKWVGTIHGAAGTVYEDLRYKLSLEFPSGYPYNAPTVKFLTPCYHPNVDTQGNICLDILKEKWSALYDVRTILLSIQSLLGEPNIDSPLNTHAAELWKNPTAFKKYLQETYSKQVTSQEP
Source text: (§3) The assays measuring the formation of the thioester intermediate between ubiquitin and the ubiquitin conjugating enzymes Cdc34 (SwissProt P49427) UbcH5 (SwissProt P51668) and UbcH10 (SwissProt O00762) are described below.
(§4) UbcH5 and UbcH10 thioester assays: Here, we describe an assay, based on time resolved fluorescence, to monitor the formation of the thioester intermediate between ubiquitin and the ubiquitin-conjugating enzymes UbcH5, respectively UbcH10. […]

[3] = target: T3, UbcH5-Strep (SwissProt P51668) (Homo sapiens, UniProt P51668); assay: UbcH5 thioester assay; conditions: thioester formation; n=2
T3 construct: GST with Factor Xa cleavage site (N, cleaved yes); made in house; host or cells: baculovirus, High Five insect cells
T3 sequence (P51668 whole entry): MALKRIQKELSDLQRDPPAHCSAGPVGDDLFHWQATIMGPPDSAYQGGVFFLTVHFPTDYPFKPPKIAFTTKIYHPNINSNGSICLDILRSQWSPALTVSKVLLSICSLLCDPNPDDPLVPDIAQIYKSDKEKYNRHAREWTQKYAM
Source text: as §3, §4

[4] = target: T4, Cdc34-FLAG (ubiquitin conjugating enzyme Cdc34, SwissProt P49427) (Homo sapiens, UniProt P49427); assay: Cdc34 thioester assay (time resolved fluorescence)
T4 construct: GST with Factor Xa cleavage site (N, cleaved yes); made in house; host or cells: baculovirus, High Five insect cells
T4 sequence (P49427 1-236): T1 sequence (P49427 1-236)
Description: as §1, §2

effect per se on the ability of Cdc34 to undergo thioester formation with ubiquitin ([1]; FIG. 3): does not affect per se
SMILES: c1cnc2c(c1)ccc1cccnc12 [phenathroline, 1,10-Phenanthroline, reference compound]

IC50 [2]: > 50 µM
IC50 [3]: > 50 µM
SMILES: CCCc1csc2nc(C(=O)n3nc(C)cc3C)cn12 [Compound V, (3,5-dimethyl-pyrazol-1-yl)-(3-propyl-imidazo[2,1-b]thiazol-6-yl)-methanone]

IC50 ([4]; thioester formation, mean of n=5, read-out: Cdc34-FLAG IC50): 390 nM
IC50 [2]: > 50 µM
IC50 [3]: > 50 µM
IC50 ([1]; 1,10-Phenanthroline 0 μM, ZnCl2 0 nM): 740 nM
IC50 ([1]; 1,10-Phenanthroline 0 μM, ZnCl2 100 nM): 550 nM
IC50 ([1]; 1,10-Phenanthroline 0 μM, ZnCl2 200 nM): 360 nM
IC50 ([1]; 1,10-Phenanthroline 2 μM, ZnCl2 0 nM): 1400 nM
IC50 ([1]; 1,10-Phenanthroline 2 μM, ZnCl2 100 nM): 640 nM
IC50 ([1]; 1,10-Phenanthroline 2 μM, ZnCl2 200 nM): 710 nM
IC50 ([1]; 1,10-Phenanthroline 10 μM, ZnCl2 0 nM): 8800 nM
IC50 ([1]; 1,10-Phenanthroline 10 μM, ZnCl2 100 nM): 4600 nM
IC50 ([1]; 1,10-Phenanthroline 10 μM, ZnCl2 200 nM): 1380 nM
inhibitory activity on Cdc34 thioester formation ([1]; Cdc34 pretreated with 50 μM phenanthroline (FIG. 3)): completely abolished
IC50 ([1]; TSQ 0 μM, ZnCl2 0 nM): 640 nM
IC50 ([1]; TSQ 0 μM, ZnCl2 100 nM): 600 nM
IC50 ([1]; TSQ 0 μM, ZnCl2 200 nM): 700 nM
IC50 ([1]; TSQ 2 μM, ZnCl2 0 nM): 4200 nM
IC50 ([1]; TSQ 2 μM, ZnCl2 100 nM): 950 nM
IC50 ([1]; TSQ 2 μM, ZnCl2 200 nM): 1300 nM
IC50 ([1]; TSQ 10 μM, ZnCl2 0 nM): 10600 nM
IC50 ([1]; TSQ 10 μM, ZnCl2 100 nM): 3300 nM
IC50 ([1]; TSQ 10 μM, ZnCl2 200 nM): 600 nM
SMILES: Cc1cc(C)n(C(=O)c2cn3c(C)csc3n2)n1 [Compound I, (3,5-dimethyl-pyrazol-1-yl)-(3-methyl-imidazo[2,1-b]thiazol-6-yl)-methanone]
effect of phenantroline on inhibitory activity of the compounds ([1]; compound added to Cdc34 before phenantroline (data not shown)): failed to abolish the inhibitory activity

IC50 ([4]; read-out: IC50 values as determined in the Cdc34 thioester assays): ≤ 1000 nM
SMILES: Cc1cc(C)n(C(=O)c2cn3ccsc3n2)n1 [Compound II, (3,5-Dimethyl-pyrazol-1-yl)-imidazo[2,1-b]thiazol-6-yl-methanone]
